Results published in publication PMC10306110 (Cell, 2023).

Columns and labels:
[1] = system: wild-type (WT) and VMAT2 heterozygous (HET) mice; assay: Tail suspension in VMAT2 mice; type: in vivo, mouse; conditions: for anti-depressant-like effects 24 h post-injection: VMAT2 HET, 2 mg/kg ‘8090, 0.5 mg/kg ‘8219, 20 mg/kg Flx, 30 mg/kg Ibo; for immobility times: acute (30 min), 20 mg/kg Flx versus vehicle, 30 mg/kg Ibo versus 1 mg/kg ‘8090 and 0.5 mg/kg ‘8219
[2] = system: learned helpless C57BL/6J mice; assay: Learned helplessness: sucrose preference; type: in vivo, mouse; conditions: for overall sucrose preference at testing: 40 mg/kg Ibo
[3] = system: learned helpless C57BL/6J mice; assay: Learned helplessness: tail suspension; type: in vivo, mouse; conditions: for immobility upon treatment-withdrawal / anti-depressant-like activities in tail suspension: 40 mg/kg Ibo; for immobility upon treatment-withdrawal: 10 mg/kg Flx; for anti-depressant-like activities in tail suspension: 10 mg/kg Flx daily
[4] = system: learned helpless C57BL/6J mice; assay: Learned helplessness: shock escape; type: in vivo, mouse; conditions: for shock-escape performance: 40 mg/kg Ibo, 10 mg/kg Flx
[5] = system: learned helpless C57BL/6J mice; assay: Sensitivity to foot-shock; type: in vivo, mouse; conditions: days 13 and 22
[6] = system: learned helpless C57BL/6J mice; assay: Open field motor activity; type: in vivo, mouse; conditions: day 12; 2 or 5 mg/kg ‘8090, 5 mg/kg ‘8219; 40 mg/kg Ibo, 10 mg/kg Flx
[7] = system: learned helpless C57BL/6J mice; assay: Elevated zero maze; type: in vivo, mouse; conditions: for locomotion in the zero maze versus vehicle: 5 mg/kg ‘8090, 40 mg/kg Ibo
[8] = system: learned helpless C57BL/6J mice; assay: Elevated 8-arm radial maze; type: in vivo, mouse
[9] = biological target: SERT-S277C (Rattus norvegicus, UniProt P31652, C109A/C15A/C21A/C357I/C622A/S277C); assay: Cys277 accessibility; type: biochemical
[10] = biological target: T1, SERT-Y107C (Rattus norvegicus, UniProt P31652, C109A/Y107C); conditions: cited from earlier work
[11] = system: C56BL/6J mice; assay: Elevated plus-maze assay; type: in vivo, mouse; conditions: ‘8219 and ‘8090 10 mg/kg/day for 10 days; paroxetine 10 mg/kg single
[12] = system: morphine-treated mice; assay: Naloxone-precipitated opioid withdrawal assay; type: in vivo, mouse; conditions: 10 mg/kg i.p.
[13] = biological target: T2, SERT (Rattus norvegicus, UniProt P31652); assay: [125I]β-CIT displacement binding in membranes from SERT-transfected HeLa cells
[14] = biological target: rSERT (Rattus norvegicus, UniProt P31652); assay: [3H]5-HT transport into RBL cells or SERT-transfected HeLa cells; type: cell-based
[15] = biological target: T2, SERT; assay: Efflux of accumulated [3H]5-HT induced by extracellular compounds; type: cell-based; conditions: saturating concentrations
[16] = biological target: T1, SERT-Y107C; assay: Cys107 accessibility; type: cell-based; conditions: saturating concentration (10x KD)
[17] = biological target: hSERT (Homo sapiens, UniProt P31645); type: cell-based
hSERT, sequence (P31645 whole entry): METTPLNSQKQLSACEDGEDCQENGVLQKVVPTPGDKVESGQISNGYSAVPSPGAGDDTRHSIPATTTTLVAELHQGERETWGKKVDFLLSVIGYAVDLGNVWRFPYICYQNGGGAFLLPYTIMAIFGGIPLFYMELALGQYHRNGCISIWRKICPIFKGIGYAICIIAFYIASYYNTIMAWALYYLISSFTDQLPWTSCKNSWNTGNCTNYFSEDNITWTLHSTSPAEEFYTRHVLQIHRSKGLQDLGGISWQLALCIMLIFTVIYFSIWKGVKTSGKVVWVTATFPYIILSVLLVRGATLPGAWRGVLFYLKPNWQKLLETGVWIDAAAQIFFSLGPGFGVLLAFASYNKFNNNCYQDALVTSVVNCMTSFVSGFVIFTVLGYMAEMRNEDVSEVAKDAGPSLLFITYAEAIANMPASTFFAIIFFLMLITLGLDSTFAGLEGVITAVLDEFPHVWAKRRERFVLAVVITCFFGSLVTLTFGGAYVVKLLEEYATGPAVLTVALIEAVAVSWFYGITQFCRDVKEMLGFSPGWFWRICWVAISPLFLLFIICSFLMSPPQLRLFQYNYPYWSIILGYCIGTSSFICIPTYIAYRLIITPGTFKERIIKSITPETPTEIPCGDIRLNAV

[18] = biological target: T3, 5-HT1A receptor (Homo sapiens, UniProt P08908); assay: GloSensor cAMP Gi agonist activity assay; type: cell-based; conditions: concentration-response
T3 sequence (P08908 1-422): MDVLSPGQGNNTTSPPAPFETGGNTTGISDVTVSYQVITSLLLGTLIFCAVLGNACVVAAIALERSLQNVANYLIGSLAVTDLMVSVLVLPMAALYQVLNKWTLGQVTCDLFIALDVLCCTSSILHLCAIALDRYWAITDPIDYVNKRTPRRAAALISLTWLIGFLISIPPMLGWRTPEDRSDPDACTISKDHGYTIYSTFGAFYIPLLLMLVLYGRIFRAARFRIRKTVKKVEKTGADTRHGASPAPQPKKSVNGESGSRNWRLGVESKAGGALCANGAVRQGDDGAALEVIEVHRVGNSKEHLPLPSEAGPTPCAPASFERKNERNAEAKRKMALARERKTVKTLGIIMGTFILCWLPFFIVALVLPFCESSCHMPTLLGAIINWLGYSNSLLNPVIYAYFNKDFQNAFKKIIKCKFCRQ

[19] = Pharmacokinetics, brain exposure after i.p. dosing; type: in vivo; conditions: 10 mg/Kg intraperitoneal (i.p.), mouse
[20] = biological target: human DAT (Homo sapiens, UniProt Q01959); assay: Neurotransmitter transporter uptake assay, DAT; conditions: read-out: Ki against DAT; cell-based functional assay
human DAT, sequence (Q01959 whole entry): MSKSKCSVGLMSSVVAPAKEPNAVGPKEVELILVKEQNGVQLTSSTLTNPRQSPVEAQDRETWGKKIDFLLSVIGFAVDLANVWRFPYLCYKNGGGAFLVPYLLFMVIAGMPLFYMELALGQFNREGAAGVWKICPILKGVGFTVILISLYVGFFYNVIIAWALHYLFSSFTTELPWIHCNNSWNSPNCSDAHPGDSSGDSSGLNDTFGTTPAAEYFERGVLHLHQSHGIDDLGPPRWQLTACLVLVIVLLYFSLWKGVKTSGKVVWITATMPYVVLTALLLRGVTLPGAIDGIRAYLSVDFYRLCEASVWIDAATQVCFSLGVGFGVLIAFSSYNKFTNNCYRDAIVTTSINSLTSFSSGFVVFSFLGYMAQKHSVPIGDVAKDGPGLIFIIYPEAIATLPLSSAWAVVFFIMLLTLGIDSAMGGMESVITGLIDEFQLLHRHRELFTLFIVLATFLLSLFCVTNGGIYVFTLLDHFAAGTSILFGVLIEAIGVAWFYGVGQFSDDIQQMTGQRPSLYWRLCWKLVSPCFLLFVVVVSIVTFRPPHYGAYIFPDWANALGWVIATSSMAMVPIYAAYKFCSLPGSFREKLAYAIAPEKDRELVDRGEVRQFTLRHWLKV

[21] = biological target: human NET (Homo sapiens, UniProt P23975); assay: Neurotransmitter transporter uptake assay, NET; conditions: read-out: Ki against NET; cell-based functional assay
human NET, sequence (P23975 whole entry): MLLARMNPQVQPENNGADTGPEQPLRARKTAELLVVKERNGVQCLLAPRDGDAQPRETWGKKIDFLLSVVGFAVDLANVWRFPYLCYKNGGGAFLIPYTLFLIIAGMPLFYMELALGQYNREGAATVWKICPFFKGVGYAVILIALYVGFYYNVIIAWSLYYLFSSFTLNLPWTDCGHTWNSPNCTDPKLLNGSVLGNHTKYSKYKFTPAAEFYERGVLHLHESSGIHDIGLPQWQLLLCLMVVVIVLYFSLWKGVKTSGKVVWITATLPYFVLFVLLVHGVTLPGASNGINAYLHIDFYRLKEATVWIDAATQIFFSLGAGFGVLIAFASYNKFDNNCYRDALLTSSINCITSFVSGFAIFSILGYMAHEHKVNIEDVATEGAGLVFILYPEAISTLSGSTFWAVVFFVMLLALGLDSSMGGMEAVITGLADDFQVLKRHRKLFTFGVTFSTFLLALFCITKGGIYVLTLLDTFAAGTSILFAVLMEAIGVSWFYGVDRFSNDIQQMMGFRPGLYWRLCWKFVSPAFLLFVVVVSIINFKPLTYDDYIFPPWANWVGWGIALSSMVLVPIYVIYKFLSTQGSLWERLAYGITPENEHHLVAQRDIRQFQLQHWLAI

[22] = biological target: T2, SERT; conditions: cited from earlier work
[23] = presence of Na+, cocaine 10 µM, ibogaine 10 µM, ‘8219 0.05 µM, ‘8090 0.15 µM

What does the source list for `CNCCC(Oc1ccc(C(F)(F)F)cc1)c1ccccc1` (stereo not shown) [Flx, fluoxetine]?
anti-depressant-like effects 24 h post-injection [1]: maintained; immobility times ([1]; WT): increased; sucrose preference over vehicle controls on day −2 ([2]; 10 mg/kg Flx daily): enhanced preference for sucrose; overall sucrose preference at testing ([2]; 10 mg/kg Flx daily): increased overall sucrose preference; immobility upon treatment-withdrawal [3]: immobility was enhanced; anti-depressant-like activities in tail suspension [3]: transient; shock-escape performance [4]: improve shock-escape performance; reactivity to foot-shock [5]: do not affect reactivity to foot-shock; locomotion in the open field [6]: No locomotor differences were found; open area time compared to Ibo and vehicle controls ([7]; 10 mg/kg Flx): increased open area time; arm entries before repeating a first entry compared to Ibo and vehicle mice ([8]; 10 mg/kg Flx, ANCOVA): entered more arms before repeating a first entry

With `COC(=O)[C@H]1[C@@H](OC(=O)c2ccccc2)C[C@@H]2CC[C@H]1N2C` [cocaine, reference compound] as the compound, how does the “Cys277 reactivity (cytoplasmic pathway) versus control” value [9, 23] read?
The value was “decreased Cys277 reactivity”.

And the “Cys107 accessibility (extracellular pathway)” value [10]?
The value was “renders it more accessible”.

What does the source list for `Fc1ccc([C@@H]2CCNC[C@H]2COc2ccc3c(c2)OCO3)cc1` [paroxetine, reference compound]?
open arm entries and time compared to vehicle [11]: spent more time exploring the open arms; naloxone-precipitated morphine withdrawal symptoms [12]: significantly reduced naloxone-precipitated jumps and rearings

What does the source list for `Fc1ccc(-c2csc(N3CCNCC3)n2)cc1` [‘8090]?
Ki ([13]; displacement of [125I]β-CIT): 0.014 µM; increase of inhibitory potency (binding) by Na+ ([13]; displacement of [125I]β-CIT): 15 fold; Kd ([13]; read-out: KD values used for kon calculation): 0.015 µM; Vmax for 5-HT transport in presence of inhibitor ([14]; 0.15 μM ‘8219, 0.7 μM ‘8090, HeLa cells transfected with rSERT, control 1.7 ± 0.25): 0.69 ± 0.1 pmol/m/well; type of inhibition of 5-HT influx ([14]; decreased Vmax with minimal effect on KM): non-competitive inhibition; SERT substrate activity (stimulation of [3H]5-HT efflux) [15]: not SERT substrates; Cys277 reactivity (cytoplasmic pathway) versus control ([9]; absence of Na+ (replaced by NMDG), 2 µM): had no influence on the pathway; Cys277 reactivity (cytoplasmic pathway) versus control [9, 23]: decreased reactivity slightly; Cys107 reactivity (extracellular pathway) [16]: decreased Cys107 reactivity; dissociation rate ([17]; HEK-293 cells expressing hSERT pre-incubated with 50 nM ‘8219 or 75 nM ‘8090, washout): 1.82 ± 0.09 × 10^−3 s^−1; half time for equilibration of binding ([17]; at concentrations giving half-maximal inhibition, calculated): less than 7 minutes; Gi agonist activity at 5-HT1A relative to reference agonist 5-HT [18]: about 6%; brain Cmax [19]: 12000 ng/g; half-life ([19]; brain): 44.3 min; anti-depressant-like effects 24 h post-injection [1]: maintained; immobility 24 h post-injection ([1]; WT, 1 mg/kg compared to 0.5 mg/kg): significantly decreased immobility; sucrose preference compared to vehicle ([2]; daily i.p. dosing, 2 or 5 mg/kg ‘8090, 5 mg/kg ‘8219): significant preference for sucrose compared to vehicle; immobility times on days 0, 1, and 3 ([3]; 2 or 5 mg/kg ‘8090, 5 mg/kg ‘8219 daily): reduced; shock-escape performance on day 23 versus controls ([4]; 1 mg/kg ‘8090 group): higher; shock-escape performance (numbers of escapes) on days 10 and 23 ([4]; 5 mg/kg): increased over vehicle; reactivity to foot-shock [5]: do not affect reactivity to foot-shock; locomotion in the open field [6]: no effects were observed; locomotion in the zero maze versus vehicle [7]: increased; time in and entry into the open areas versus vehicle ([7]; 2 or 5 mg/kg ‘8090, 5 mg/kg ‘8219, day 6): spent more time and entered the open areas more readily than vehicle-treated mice; open arm entries and time compared to vehicle [11]: increased the percentage of entries into and the time spent exploring the open arms; arm entries before a second repeated entry versus vehicle ([8]; 2 mg/kg ‘8090 or 5 mg/kg ‘8219, day 9): entered more arms before making a second repeated entry; Ki [20]: 6.6 µM; Ki [21]: 10 µM

Which results are given for ibogaine?
Cys277 reactivity (cytoplasmic pathway) versus control [9, 23]: dramatically increased Cys277 reactivity; anti-depressant-like effects 24 h post-injection [1]: effects were lost; immobility times ([1]; WT): increased; overall sucrose preference at testing ([2]; 10 mg/kg Flx daily): increased overall sucrose preference; immobility upon treatment-withdrawal [3]: immobility was enhanced; anti-depressant-like activities in tail suspension [3]: transient; shock-escape performance [4]: improve shock-escape performance; locomotion in the zero maze versus vehicle [7]: decreased; locomotion in the radial maze ([8]; 40 mg/kg Ibo): suppressed locomotion; effect of Cl− on binding to SERT [22]: independent of Cl^−; effect of Na+ on binding to SERT [22]: inhibited by Na^+; Cys107 accessibility (extracellular pathway) [10]: decreases its accessibility
